These results are taken from patent US12497411B2, “Muscarinic acetylcholine receptor subtype 4 antagonists in the treatment of anemia” (COLD SPRING HARBOR LABORATORY, priority 2019, dated 2025).

Test [1] deals with PHZ induced hemolytic anemia in C57bl/6 mice. As to the kind of experiment: PHZ induced hemolytic anemia mouse model, CBC. It is filed as in vivo. To be noted: 60 mg/kg phenylhydrazine. The procedure: Animal experiments were conducted in the Cold Spring Harbor Laboratory Animal Shared Resource in accordance with Institutional Animal Care and Use Committee-approved procedures. 4-6 weeks old C57bl/6 mice, purchased from Jackson Laboratory and randomly distributed into compound and control treatment groups, were given through oral delivery of PCS1055 (50 mg/kg or 100 mg/kg) twice per day or PD102807 (50 mg/kg or 100 mg/kg) once per day everyday for 3 days. On day 3, mice were intraperitoneally injected with 60 mg/kg PHZ. Mice were then given through oral delivery of PD102807 (50 mg/kg or 100 mg/kg) once per day every day for 2 days. Peripheral blood samples were collected retro-orbitally on day 6 using heparinized capillary tubes in blood collection tubes with K2-EDTA. CBC was performed using Hemavet 950. […] C57bl/6 mice were injected with 60 mg/kg phenylhydrazine to induce hemolysis. Mice were delivered with either vehicle control or Compound A or B (30 mg/kg or 100 mg/kg). Peripheral blood samples were collected retro-orbitally using heparinized capillary tubes into blood collection tubes with K2-EDTA. Complete blood counting was performed using Hemavet 950. Hematocrit (HCT), red blood cell (RBC) and hemoglobin (Hb) values are shown. […] C57bl/6 mice were injected with 60 mg/kg phenylhydrazine to induce hemolysis. Mice were delivered with subcutaneous injection with either vehicle control or Compound B (1.5 mg/kg, 3 mg/kg, or 5 mg/kg) or I (0.5 mg/kg, 0.7 mg/kg, or 1 mg/kg). Peripheral blood samples were collected retro-orbitally using heparinized capillary tubes into blood collection tubes with K2-EDTA. Complete blood counting was performed using Hemavet 950. Hematocrit (HCT), red blood cell (RBC) and hemoglobin (Hb) values are shown.

In test [2] the target is T1, CHRM4 (Homo sapiens, UniProt P08173).
T1 sequence (P08173 1-479): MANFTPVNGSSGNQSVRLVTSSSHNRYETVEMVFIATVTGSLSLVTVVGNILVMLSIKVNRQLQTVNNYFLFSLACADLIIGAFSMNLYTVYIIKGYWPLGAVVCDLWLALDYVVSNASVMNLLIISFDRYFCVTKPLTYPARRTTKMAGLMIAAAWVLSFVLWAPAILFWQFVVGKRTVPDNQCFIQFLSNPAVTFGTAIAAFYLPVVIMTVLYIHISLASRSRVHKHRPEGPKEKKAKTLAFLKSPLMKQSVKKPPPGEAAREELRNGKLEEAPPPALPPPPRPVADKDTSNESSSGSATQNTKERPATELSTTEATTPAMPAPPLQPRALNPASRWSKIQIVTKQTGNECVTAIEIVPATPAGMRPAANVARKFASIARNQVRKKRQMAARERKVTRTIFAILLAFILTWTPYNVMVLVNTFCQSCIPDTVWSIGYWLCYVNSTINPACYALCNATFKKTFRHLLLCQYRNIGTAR
Put plainly: Radioligand binding assay, CHRM4. Details: expressed in transfected cells; host or cells: CHO cells (membranes). To be noted: [3H]4-DAMP (0.2 nM), CHO cell membranes, 60 minutes at room temperature; read-out: Ki M4. The procedure:
(§1) PD102807 and Compounds A-K at concentrations of 1×10^−9 M, 1×10^−8 M, 1×10^−7 M, 1×10^−6 M, and 1×10^−5 M were tested in standard binding assays with radioligands and cell membranes with receptors. Compound binding was calculated as a percent inhibition of the binding of a radioactively labeled ligand specific for each target, and the Ki values were determined. For CHRM1, the binding assay was performed using [^3H]pirenzepine (2 nM) as a radioligand and membranes of CHO cells with human recombinant CHRM1 receptor. The incubation time was 60 minutes at room temperature. For CHRM2, the binding assay was performed using [^3H]AF-DX 384 (2 nM) as a radioligand and membranes of CHO cells with human recombinant CHRM2 receptor. The incubation time was also 60 minutes at room temperature. For CHRM3, the binding assay was performed using [^3H]4-DAMP (0.2 nM) as a radioligand and membranes of CHO cells with human recombinant CHRM3 receptor. The incubation time was also 60 minutes at room temperature. For CHRM4, the binding assay was performed using [^3H]4-DAMP (0.2 nM) as a radioligand and membranes of CHO cells with human recombinant CHRM4 receptor. The incubation time was also 60 minutes at room temperature. For CHRM5, the binding assay was performed using [^3H]4-DAMP (0.3 nM) as a radioligand and membranes of CHO cells with human recombinant CHRM5 receptor. The incubation time was also 60 minutes at room temperature.

The target of test [3] is T2, human recombinant CHRM2 receptor (Homo sapiens, UniProt P08172).
T2 construct: expressed in transfected cells; host or cells: CHO cells (membranes)
T2 sequence (P08172 1-466): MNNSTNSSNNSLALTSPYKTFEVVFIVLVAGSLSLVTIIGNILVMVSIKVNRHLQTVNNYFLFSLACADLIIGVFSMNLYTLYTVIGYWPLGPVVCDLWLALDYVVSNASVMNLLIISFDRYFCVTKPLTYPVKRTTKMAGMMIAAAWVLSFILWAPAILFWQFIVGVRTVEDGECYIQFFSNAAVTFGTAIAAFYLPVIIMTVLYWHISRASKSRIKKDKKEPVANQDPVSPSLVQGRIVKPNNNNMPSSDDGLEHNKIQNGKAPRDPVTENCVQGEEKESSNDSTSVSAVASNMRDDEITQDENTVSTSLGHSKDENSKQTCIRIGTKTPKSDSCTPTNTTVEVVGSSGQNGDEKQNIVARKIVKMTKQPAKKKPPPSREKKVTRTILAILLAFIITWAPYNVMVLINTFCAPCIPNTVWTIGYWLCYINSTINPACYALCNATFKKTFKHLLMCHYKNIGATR
As to the kind of experiment: Radioligand binding assay, CHRM2. To be noted: [3H]AF-DX 384 (2 nM), CHO cell membranes, 60 minutes at room temperature; read-out: Ki M2. The procedure: as §1

Test [4] has as its target T3, human recombinant CHRM5 receptor (Homo sapiens, UniProt P08912).
T3 construct: expressed in transfected cells; host or cells: CHO cells (membranes)
T3 sequence (P08912 1-532): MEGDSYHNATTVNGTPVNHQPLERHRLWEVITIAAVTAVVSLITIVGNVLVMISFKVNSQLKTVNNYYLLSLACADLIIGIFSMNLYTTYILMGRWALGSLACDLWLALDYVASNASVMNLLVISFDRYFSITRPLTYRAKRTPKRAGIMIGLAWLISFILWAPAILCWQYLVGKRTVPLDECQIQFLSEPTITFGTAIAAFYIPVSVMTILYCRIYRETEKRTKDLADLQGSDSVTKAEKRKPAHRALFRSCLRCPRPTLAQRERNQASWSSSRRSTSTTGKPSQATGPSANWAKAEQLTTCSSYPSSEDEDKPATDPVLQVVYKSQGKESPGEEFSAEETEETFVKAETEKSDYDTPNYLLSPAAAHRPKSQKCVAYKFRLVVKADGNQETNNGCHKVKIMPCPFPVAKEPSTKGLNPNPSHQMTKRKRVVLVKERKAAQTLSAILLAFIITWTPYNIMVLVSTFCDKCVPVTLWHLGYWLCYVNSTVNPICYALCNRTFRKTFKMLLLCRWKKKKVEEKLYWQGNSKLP
Put plainly: Radioligand binding assay, CHRM5. To be noted: [3H]4-DAMP (0.3 nM), CHO cell membranes, 60 minutes at room temperature; read-out: Ki M5. The procedure:
as §1

The target in test [5] is T4, human recombinant CHRM1 receptor (Homo sapiens, UniProt P11229).
T4 construct: expressed in transfected cells; host or cells: CHO cells (membranes)
T4 sequence (P11229 1-460): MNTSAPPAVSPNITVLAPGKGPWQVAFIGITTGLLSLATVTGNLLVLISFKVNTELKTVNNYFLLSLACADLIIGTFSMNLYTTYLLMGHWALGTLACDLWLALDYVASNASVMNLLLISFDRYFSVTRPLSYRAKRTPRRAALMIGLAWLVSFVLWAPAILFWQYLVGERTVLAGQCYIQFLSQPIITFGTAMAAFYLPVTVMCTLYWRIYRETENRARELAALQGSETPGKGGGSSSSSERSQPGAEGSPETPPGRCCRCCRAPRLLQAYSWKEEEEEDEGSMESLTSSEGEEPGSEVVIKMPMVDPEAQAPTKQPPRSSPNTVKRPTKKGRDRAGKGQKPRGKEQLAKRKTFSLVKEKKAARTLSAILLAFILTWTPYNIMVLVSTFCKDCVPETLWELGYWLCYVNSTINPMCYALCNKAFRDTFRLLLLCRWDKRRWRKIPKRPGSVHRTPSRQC
As to the kind of experiment: Radioligand binding assay, CHRM1. To be noted: [3H]pirenzepine (2 nM), CHO cell membranes, 60 minutes at room temperature; read-out: Ki M1. The procedure:
as §1

For test [6], the target named is T5, human recombinant CHRM3 receptor (Homo sapiens, UniProt P20309).
T5 construct: expressed in transfected cells; host or cells: CHO cells (membranes)
As to the kind of experiment: Radioligand binding assay, CHRM3. To be noted: [3H]4-DAMP (0.2 nM), CHO cell membranes, 60 minutes at room temperature; read-out: Ki M3. The procedure:
as §1

In general, Ki refers to a measure of affinity in units of concentration, obtained from inhibition or displacement.

T5 sequence (P20309 whole entry): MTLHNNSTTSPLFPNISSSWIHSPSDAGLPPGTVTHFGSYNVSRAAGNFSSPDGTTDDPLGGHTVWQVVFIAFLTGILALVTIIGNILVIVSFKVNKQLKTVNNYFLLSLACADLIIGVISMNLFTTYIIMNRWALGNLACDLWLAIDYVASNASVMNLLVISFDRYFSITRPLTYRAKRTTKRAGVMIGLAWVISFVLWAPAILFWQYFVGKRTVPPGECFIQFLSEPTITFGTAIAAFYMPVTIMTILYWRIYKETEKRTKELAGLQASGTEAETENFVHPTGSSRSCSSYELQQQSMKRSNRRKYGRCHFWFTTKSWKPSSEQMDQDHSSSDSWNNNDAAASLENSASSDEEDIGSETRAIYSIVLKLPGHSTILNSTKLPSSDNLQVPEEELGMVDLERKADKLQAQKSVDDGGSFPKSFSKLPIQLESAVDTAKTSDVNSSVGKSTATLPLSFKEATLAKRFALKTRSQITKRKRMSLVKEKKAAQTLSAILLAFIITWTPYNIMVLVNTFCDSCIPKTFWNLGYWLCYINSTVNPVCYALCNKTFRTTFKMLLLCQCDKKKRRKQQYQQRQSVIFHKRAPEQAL

Regarding `CCOC(=O)c1c(C)[nH]c2ccc3c(c12)C[N+]1(C)CCc2cc(OC)ccc2C1O3` (single isomer, unassigned) [Compound A, 1-(ethoxycarbonyl)-9-methoxy-2,13-dimethyl-3,6a,11,12,13,14-hexahydroindolo[4′,5′:5,6][1,3]oxazino[2,3-a]isoquinolin-13-ium Iodide], the “treatment of anemia in vivo (HCT, RBC, Hb)” value in test [1] (30 mg/kg or 100 mg/kg, C57bl/6 mice) is recorded as “treat anemia in vivo”. Besides, the Ki turned out to be 1800 nM in test [2], 2200 nM in test [3] and 3500 nM in test [4].

As for `CCOC(=O)c1c(C)n(C)c2ccc3c(c12)C[N+]1(C)CCc2cc(OC)ccc2C1O3` (single isomer, unassigned) [Compound I, 1-(ethoxycarbonyl)-9-methoxy-2,3,13-trimethyl-3,6a,11,12,13,14-hexahydroindolo[4′,5′:5,6][1,3]oxazino[2,3-a]isoquinolin-13-ium Iodide], the “treatment of anemia in vivo (HCT, RBC, Hb)” value in test [1] (subcutaneous injection, B 1.5, 3 or 5 mg/kg, I 0.5, 0.7 or 1 mg/kg) is reported as “treat anemia in vivo”. Moreover, the Ki worked out at 740 nM in test [2], 1700 nM in test [3], 10000 nM in test [4] and 8500 nM in test [5].

As to `CCOC(=O)c1c(C)n(C)c2cc(C[N+]3(C)CCc4cc(OC)ccc4C3)c(OC)cc12` (centres unmarked) [Compound K], the Ki in test [2] is 54 nM; in test [3], 100 nM; in test [4], 980 nM; in test [6] it was 400 nM; in test [5], 54 nM.
